Laboratory results published in US20230265151A1, “GIP/GLP1 CO-AGONIST COMPOUNDS” (priority 2020, published 2023).
Where two headings read alike, the source gives them in different places. *1 amine or outer side, *2 acyl side, *3 side chain or, on linkers, in order; H or OH if unused. Where a SMILES comes first, the peptide text is derived from it. Side-chain parts run from the residue outwards. [ ]: non-standard residue; d: D form. The star is where a group is joined. Decanoyl(10-(4-HOOC-PhO)) = O=C(O)c1ccc(OCCCCCCCCCC(=O)*)cc1; αMePhe(2-F) = C[C@](N)(Cc1ccccc1F)C(=O)O; γGlu = O=C(O)[C@H](CCC(=O)[*:2])N[*:1]; αMeY = C[C@](N)(Cc1ccc(O)cc1)C(=O)O; αMeL = CC(C)C[C@](C)(N)C(=O)O; Orn = NCCC[C@H](N)C(=O)O; AEEA = NCCOCCOCC(=O)O; Aib = CC(C)(N)C(=O)O

Legend:
Format in all cases: cell-based
hGIPR = target: T1, hGIPR (Homo sapiens, UniProt P48546); assay: Functional cAMP formation (HTRF) in HEK-293 clonal cells expressing hGIPR, 0.1% bovine casein, without or with 1.0% human serum albumin; conditions: for EC50: geometric mean; for Emax: percent of maximal response to GIP(1-42)NH2
T1 construct: expressed in transfected cells
T1 sequence (P48546 22-466): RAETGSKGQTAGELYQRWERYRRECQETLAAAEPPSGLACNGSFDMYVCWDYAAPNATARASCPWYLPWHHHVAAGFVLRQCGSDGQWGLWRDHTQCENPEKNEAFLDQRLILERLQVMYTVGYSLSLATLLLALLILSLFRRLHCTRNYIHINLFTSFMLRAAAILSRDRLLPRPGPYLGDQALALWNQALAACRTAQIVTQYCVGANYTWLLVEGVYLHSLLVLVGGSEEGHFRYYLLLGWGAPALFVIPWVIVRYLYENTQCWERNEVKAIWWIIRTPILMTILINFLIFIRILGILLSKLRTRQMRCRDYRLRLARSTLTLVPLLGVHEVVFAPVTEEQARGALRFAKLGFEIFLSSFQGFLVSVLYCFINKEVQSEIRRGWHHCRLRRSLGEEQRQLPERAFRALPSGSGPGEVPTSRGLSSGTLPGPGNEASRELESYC
Summary of the method: (§1)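 Readings of the HTRF 665/620 nm ratio, which falls as cAMP rises, were converted to nM cAMP using a standard curve after 30 min peptide exposure at 37° C.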

hGCGR = target: T2, hGCGR (Homo sapiens, UniProt P47871); assay: Functional cAMP formation (HTRF) in HEK-293 clonal cells expressing hGCGR, 0.1% bovine casein, without or with 1.0% human serum albumin
T2 construct: expressed in transfected cells
Summary of the method: as §1

hGLP-1R = hGLP-1R (Homo sapiens, UniProt P43220); assay: Functional cAMP formation (HTRF) in HEK-293 clonal cells expressing hGLP-1R, 0.1% bovine casein, without or with 1.0% human serum albumin; set-up: expressed in transfected cells; conditions: for EC50: geometric mean
Summary of the method: as §1

[1] = HEK293, cAMP, 37° C., 0.1% bovine casein and 1.0% human serum albumin, read-out: hGIPR Emax, % ± SEM
[2] = HEK293, cAMP, 37° C., 0.1% bovine casein, arithmetic mean, read-out: hGIPR Emax, % ± SEM
[3] = cAMP, 37° C., 0.1% bovine casein (no human serum albumin), read-out: hGIPR EC50, nM (SEM, n)
[4] = cAMP, 37° C., 0.1% bovine casein (no human serum albumin), geometric mean, read-out: hGCGR EC50, nM (SEM, n)
[5] = cAMP, 37° C., 0.1% bovine casein and 1.0% human serum albumin, geometric mean (SEM, n), read-out: hGCGR EC50, nM (SEM, n)
[6] = cAMP, 37° C., 0.1% bovine casein (no human serum albumin), read-out: hGLP-1R EC50, nM (SEM, n)

Chain of hGLP-1R (P43220 24-463): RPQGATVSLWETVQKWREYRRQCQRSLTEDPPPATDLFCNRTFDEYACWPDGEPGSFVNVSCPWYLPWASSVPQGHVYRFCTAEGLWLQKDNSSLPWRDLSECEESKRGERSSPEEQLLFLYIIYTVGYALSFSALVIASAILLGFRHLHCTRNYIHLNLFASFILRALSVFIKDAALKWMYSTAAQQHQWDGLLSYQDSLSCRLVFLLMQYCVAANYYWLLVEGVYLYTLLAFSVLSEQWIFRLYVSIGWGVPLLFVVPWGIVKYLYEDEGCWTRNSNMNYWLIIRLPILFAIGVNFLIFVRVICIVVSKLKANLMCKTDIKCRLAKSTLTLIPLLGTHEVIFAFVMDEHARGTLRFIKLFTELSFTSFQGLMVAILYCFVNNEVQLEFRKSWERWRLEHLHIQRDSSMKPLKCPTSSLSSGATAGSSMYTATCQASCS
T2 sequence (P47871 26-477): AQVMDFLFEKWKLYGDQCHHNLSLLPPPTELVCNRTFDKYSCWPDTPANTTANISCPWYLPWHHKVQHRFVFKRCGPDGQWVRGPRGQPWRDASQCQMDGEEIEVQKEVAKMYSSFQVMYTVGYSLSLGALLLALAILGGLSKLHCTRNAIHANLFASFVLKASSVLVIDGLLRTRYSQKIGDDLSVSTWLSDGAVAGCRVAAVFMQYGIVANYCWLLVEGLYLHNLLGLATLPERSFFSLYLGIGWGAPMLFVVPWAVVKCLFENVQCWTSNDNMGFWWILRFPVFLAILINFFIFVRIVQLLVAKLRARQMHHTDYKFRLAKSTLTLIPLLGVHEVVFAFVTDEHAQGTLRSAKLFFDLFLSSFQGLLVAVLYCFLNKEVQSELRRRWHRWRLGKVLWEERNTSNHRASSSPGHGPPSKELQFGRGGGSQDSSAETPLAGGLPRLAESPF

In the case of `CC[C@H](C)[C@H](NC(=O)[C@H](CCCN)NC(=O)[C@H](CC(=O)O)NC(=O)[C@H](CC(C)C)NC(=O)[C@](C)(CC(C)C)NC(=O)[C@@H](NC(=O)[C@H](CO)NC(=O)[C@H](Cc1ccncc1)NC(=O)[C@H](CC(=O)O)NC(=O)[C@H](CO)NC(=O)[C@@H](NC(=O)[C@](C)(Cc1ccccc1F)NC(=O)[C@@H](NC(=O)CNC(=O)[C@H](CCC(=O)O)NC(=O)C(C)(C)NC(=O)[C@@H](N)Cc1ccc(O)cc1)[C@@H](C)O)[C@@H](C)O)[C@@H](C)CC)C(=O)N[C@@H](C)C(=O)N[C@@H](CCC(N)=O)C(=O)NC(C)(C)C(=O)N[C@@H](CCC(=O)O)C(=O)N[C@@H](Cc1ccccc1)C(=O)N[C@H](C(=O)N[C@@H](CCCCNC(=O)[C@@H](N)CCCCNC(=O)CC[C@H](NC(=O)CCCCCCCCCCCCC(=O)O)C(=O)O)C(=O)N[C@@](C)(Cc1ccc(O)cc1)C(=O)N[C@@H](CC(C)C)C(=O)N[C@H](C(=O)N[C@@H](CCC(=O)O)C(=O)NCC(=O)NCC(=O)N[C@@H](CCCCNC(=O)[C@@H](N)CCCCNC(=O)CC[C@H](NC(=O)CCCCCCCCCCCCC(=O)O)C(=O)O)C(=O)N[C@@H](CO)C(=O)N[C@@H](CO)C(=O)NCC(=O)N[C@@H](C)C(=O)N1CCC[C@H]1C(=O)N1CCC[C@H]1C(=O)N1CCC[C@H]1C(=O)N[C@@H](CO)C(N)=O)[C@@H](C)CC)[C@@H](C)CC` [Example 197], the EC50 (hGIPR; 0.1% bovine casein and 1.0% human serum albumin, 37° C., read-out: hGIPR EC50, nM (SEM, n)) is reported as 2.06 nM, the Emax (hGIPR; HEK293, 0.1% bovine casein and 1.0% human serum albumin, 37° C., read-out: hGIPR Emax, % ± SEM) is reported as 84.5 ± 4.08% and the EC50 (hGIPR; cAMP, incubated at 37° C., 0.1% bovine casein (no human serum albumin), read-out: hGIPR EC50, nM (SEM, n)) is reported as 0.0338 nM. For the same molecule, the EC50 (hGCGR; 0.1% bovine casein and 1.0% human serum albumin, 37° C., geometric mean, read-out: hGCGR EC50, nM (SEM, n)) was > 9950 nM, the EC50 (hGCGR; cAMP, incubated at 37° C., 0.1% bovine casein (no human serum albumin), geometric mean, read-out: hGCGR EC50, nM (SEM, n)) was > 9950 nM and the EC50 (hGLP-1R; 0.1% bovine casein and 1.0% human serum albumin, 37° C., read-out: hGLP-1R EC50, nM (SEM, n)) was 26.2 nM. For the same molecule, the EC50 (hGLP-1R; cAMP, incubated at 37° C., 0.1% bovine casein (no human serum albumin), read-out: hGLP-1R EC50, nM (SEM, n)) was 0.336 nM.

For `CCCCCCCCCCCC(=O)N[C@@H](CCC(=O)NCCOCCOCC(=O)NCCOCCOCC(=O)NCCCC[C@H](NC(=O)[C@H](CCCN)NC(=O)[C@H](CC(=O)O)NC(=O)[C@H](CC(C)C)NC(=O)[C@](C)(CC(C)C)NC(=O)[C@@H](NC(=O)C(C)(C)NC(=O)[C@H](Cc1ccncc1)NC(=O)[C@H](CC(=O)O)NC(=O)[C@H](CO)NC(=O)[C@@H](NC(=O)[C@](C)(Cc1ccccc1F)NC(=O)[C@@H](NC(=O)CNC(=O)[C@H](CCC(=O)O)NC(=O)C(C)(C)NC(=O)[C@@H](N)Cc1ccc(O)cc1)[C@@H](C)O)[C@@H](C)O)[C@@H](C)CC)C(=O)N[C@@H](C)C(=O)N[C@@H](CCC(N)=O)C(=O)NC(C)(C)C(=O)N[C@@H](Cc1ccncc1)C(=O)N[C@@H](Cc1ccccc1)C(=O)N[C@H](C(=O)N[C@H](CCC(=O)O)C(=O)N[C@@](C)(Cc1ccc(O)cc1)C(=O)N[C@@H](CC(C)C)C(=O)N[C@H](C(=O)N[C@@H](CCCCNC(=O)COCCOCCNC(=O)COCCOCCNC(=O)CC[C@H](NC(=O)CCCCCCCCCCC)C(=O)O)C(=O)NCC(=O)NCC(=O)N1CCC[C@H]1C(=O)N[C@@H](CO)C(=O)N[C@@H](CO)C(=O)NCC(=O)N[C@@H](C)C(=O)N1CCC[C@H]1C(=O)N1CCC[C@H]1C(=O)N1CCC[C@H]1C(=O)N[C@@H](CO)C(N)=O)[C@@H](C)CC)[C@@H](C)CC)C(=O)O` [Example 416], the Emax (hGIPR; [1]) was 83%, the Emax (hGIPR; [2]) was 99% and the EC50 (hGIPR; [3]) was 0.0214 nM. For the same molecule, the EC50 (hGCGR; [4]) was > 9950 nM, the EC50 (hGCGR; [5]) was > 9950 nM and the Emax (hGLP-1R; HEK293, cAMP, 37° C., 0.1% bovine casein and 1.0% human serum albumin, percent of maximal response to GLP-1(7-36)NH2, read-out: hGLP-1R Emax, % ± SEM) was 109%. It also gave an EC50 (hGLP-1R; [6]) of 0.332 nM.

For `CC[C@H](C)[C@H](NC(=O)[C@H](CC(C)C)NC(=O)[C@](C)(Cc1ccc(O)cc1)NC(=O)[C@H](CCCCNC(=O)COCCOCCNC(=O)COCCOCCNC(=O)CC[C@H](NC(=O)CCCCCCCCCCCCC(=O)O)C(=O)O)NC(=O)[C@@H](NC(=O)[C@H](Cc1ccccc1)NC(=O)[C@H](CCCN)NC(=O)C(C)(C)NC(=O)[C@H](CCC(N)=O)NC(=O)[C@H](C)NC(=O)[C@H](CCC(N)=O)NC(=O)[C@H](CCCN)NC(=O)[C@H](CC(=O)O)NC(=O)[C@H](CC(C)C)NC(=O)[C@](C)(CC(C)C)NC(=O)[C@@H](NC(=O)C(C)(C)NC(=O)[C@H](Cc1ccc(O)cc1)NC(=O)[C@H](CC(=O)O)NC(=O)[C@H](CO)NC(=O)[C@@H](NC(=O)[C@](C)(Cc1ccccc1F)NC(=O)[C@@H](NC(=O)CNC(=O)[C@H](CCC(=O)O)NC(=O)C(C)(C)NC(=O)[C@@H](N)Cc1ccc(O)cc1)[C@@H](C)O)[C@@H](C)O)[C@@H](C)CC)[C@@H](C)CC)C(=O)N[C@@H](CCCCNC(=O)COCCOCCNC(=O)COCCOCCNC(=O)CC[C@H](NC(=O)CCCCCCCCCCCCC(=O)O)C(=O)O)C(=O)NCC(=O)NCC(=O)N1CCC[C@H]1C(=O)N[C@@H](CO)C(=O)N[C@@H](CO)C(=O)NCC(=O)N[C@@H](C)C(=O)N1CCC[C@H]1C(=O)N1CCC[C@H]1C(=O)N1CCC[C@H]1C(=O)N[C@@H](CO)C(N)=O` [Example 401], the Emax (hGIPR; [1]) was 83%, the Emax (hGIPR; [2]) was 98.9% and the EC50 (hGIPR; [3]) was 0.0112 nM. For the same molecule, the EC50 (hGCGR; [4]) was > 9950 nM, the EC50 (hGCGR; [5]) was > 9950 nM and the EC50 (hGLP-1R; [6]) was 0.235 nM.

`CC[C@H](C)[C@H](NC(=O)[C@H](CCCN)NC(=O)[C@H](CC(=O)O)NC(=O)[C@H](CC(C)C)NC(=O)[C@](C)(CC(C)C)NC(=O)[C@@H](NC(=O)C(C)(C)NC(=O)[C@H](Cc1ccc(O)cc1)NC(=O)[C@H](CC(=O)O)NC(=O)[C@H](CO)NC(=O)[C@@H](NC(=O)[C@](C)(Cc1ccccc1F)NC(=O)[C@@H](NC(=O)CNC(=O)[C@H](CCC(=O)O)NC(=O)C(C)(C)NC(=O)[C@@H](N)Cc1ccc(O)cc1)[C@@H](C)O)[C@@H](C)O)[C@@H](C)CC)C(=O)N[C@@H](C)C(=O)N[C@@H](CCC(N)=O)C(=O)NC(C)(C)C(=O)N[C@@H](CCCCNC(=O)COCCOCCNC(=O)COCCOCCNC(=O)CC[C@H](NC(=O)CCCCCCCCCOc1ccc(C(=O)O)cc1)C(=O)O)C(=O)N[C@@H](Cc1ccccc1)C(=O)N[C@H](C(=O)N[C@H](CCC(=O)O)C(=O)N[C@@](C)(Cc1ccc(O)cc1)C(=O)N[C@@H](CC(C)C)C(=O)N[C@H](C(=O)N[C@@H](CCCCNC(=O)COCCOCCNC(=O)COCCOCCNC(=O)CC[C@H](NC(=O)CCCCCCCCCOc1ccc(C(=O)O)cc1)C(=O)O)C(=O)NCC(=O)NCC(=O)N1CCC[C@H]1C(=O)N[C@@H](CO)C(=O)N[C@@H](CO)C(=O)NCC(=O)N[C@@H](C)C(=O)N1CCC[C@H]1C(=O)N1CCC[C@H]1C(=O)N1CCC[C@H]1C(=O)N[C@@H](CO)C(N)=O)[C@@H](C)CC)[C@@H](C)CC` [Example 240] (H-Y[Aib]EGT[αMePhe(2-F)]TSDY[Aib]I[αMeL]LD[Orn]IAQ[Aib]K([AEEA-AEEA-γGlu-Decanoyl(10-(4-HOOC-PhO))])FI[dE][αMeY]LIK([AEEA-AEEA-γGlu-Decanoyl(10-(4-HOOC-PhO))])GGPSSGAPPPS-NH2) was tested, and the Emax (hGIPR; HEK293, read-out: hGIPR Emax, % ± SEM, 0.1% bovine casein and 1.0% human serum albumin, 37° C.) was 87.2%, the EC50 (hGIPR; hGIPR EC50, nM (SEM, n), cAMP, incubated at 37° C., 0.1% bovine casein (no human serum albumin)) was 0.0237 nM and the EC50 (hGCGR; hGCGR EC50, nM (SEM, n), 0.1% bovine casein and 1.0% human serum albumin, 37° C., geometric mean) was > 9950 nM. For the same molecule, the EC50 (hGCGR; hGCGR EC50, nM (SEM, n), cAMP, incubated at 37° C., 0.1% bovine casein (no human serum albumin), geometric mean) was > 9950 nM, the Emax (hGLP-1R; HEK293, read-out: hGLP-1R Emax, % ± SEM, percent of maximal response to GLP-1(7-36)NH2, 37° C., 0.1% bovine casein, arithmetic mean) was 98.5% and the EC50 (hGLP-1R; hGLP-1R EC50, nM (SEM, n), 0.1% bovine casein and 1.0% human serum albumin, 37° C.) was 150 nM. It also gave an EC50 (hGLP-1R; hGLP-1R EC50, nM (SEM, n), cAMP, incubated at 37° C., 0.1% bovine casein (no human serum albumin)) of 0.508 nM.
